Reference: US20230250131A1, “HYDROXYSTEROID COMPOUNDS” (Epirium Bio Inc., priority 2022, published 2023)
“And” between values parts separate entries of the source, which are not always exact repeats. Equal values may be shown once. Read-outs that look alike come from different tables or passages of the source.

Tested on: PGC-1α
Test: PGC-1α assay in differentiated C2C12 cells (ELISA-type antibody detection, absorbance at 450 nm)
Type: cell-based
Conditions: each compound tested at 0.01 nM, DMSO control as 100%; for activity at 10 pM: Mus musculus, C2C12, C2C12 myotubes
Description: The compounds of Table 2 were synthesized and tested in a PGC-1α assay.
Culture conditions: DMEM containing 25 mM glucose with 10% FBS supplementation; grown at 37° C. and 5% CO2.
Assay Conditions: C2C12 cells were cultured in DMEM supplemented in 10% FBS up to 80% confluence. The cells were further trypsinized and seeded into a 96 well plate at a density of 5000 cells/well (well volume—100 μL) (Day 0). Following attachment, the cells were allowed to reach 80-90% confluence in the plate (typically 48 hours post seeding) and further differentiated using DMEM+2% Horse Serum (200 μL/well). The media was changed every day or at least every alternate day for 5 days to allow myoblasts to differentiate into myotubes. On day 7 (post seeding), the cells were treated with standards and test compounds for PGC-1α assay.
PGC-1α assay: For the detection of PGC-1α, the cells were incubated with […] primary antibody (Merck, WH10010891M3) in PBS-T containing 5% BSA at 4° C. overnight. The cells were then washed three times with PBS-T for 5 minutes and incubated with 1:1000 dilution secondary antibody (Anti-rabbit IgG, HRP-linked Antibody, Cell Signaling) in PBS-T with […] for 1 hour at RT. Cells were washed three times with PBS-T for 5 minutes The cells were incubated with 100 μl TMB substrate solution for 30 minutes and the reaction was stopped with 100 μl of 2N H2SO4. Then the plate was read at 450 nm using ELISA plate reader and absorbance recorded. […] was calculated using DMSO control as 100%. (For plate optical density calculations, a background correction was taken at 540 nm). Each compound was tested at a concentration of 0.01 nM.

[1] = average over experiments, read-out: Single point PGC1-Alpha Assay: Average Activity (%)
[2] = individual experiments (Exp. 1-3), read-out: Single point PGC1-Alpha Assay: Activity (%)

Compound | activity at 10 pM [1] [%] | activity at 10 pM [2] [%] | Single point PGC1-Alpha Assay: Activity (%) (C2C12 myotubes, individual experiments (Exp. 1-3), 10 pM)
CCN1C(=O)CC[C@@]2(C)C1=CCC1C3CCC(C4(C)OCCO4)[C@@]3(C)C[C@](C)(O)C12 (some centres unmarked) | 119 | 119 | –
[2H][C@]1(O)C[C@@]2(C)C(CC[C@@H]2C(C)=O)C2CC=C3N(CC)C(=O)CC[C@]3(C)C21 (some centres unmarked) | 127 | – | 137% and 112% and 131%
CCCN1C(=O)CC[C@@]2(C)C1=CCC1C2[C@@H](O)C[C@@]2(C)C1CC[C@@H]2C(C)=O (some centres unmarked) | 109 | 109 | –
CCN1C(=O)CC[C@@]2(C)C1=CCC1C2[C@@](C)(O)C[C@@]2(C)C1CC[C@@H]2C(C)(C)O (some centres unmarked) | 126 | 126 | –
CCN1C(=O)CC[C@@]2(C)C1=CCC1C2[C@@H](O)C[C@@]2(C)C1CC[C@@H]2C(C)=O (some centres unmarked) | 116 | 116 | –
CCN1C(=O)CC[C@@]2(C)C1=CCC1C2[C@@](C)(O)C[C@@]2(C)C1CC[C@@H]2C(C)=O (some centres unmarked) | 118 | 118 | –
CCN1C(=O)CC[C@@]2(C)C1=CCC1C2[C@@H](O)C[C@@]2(C)C1CC[C@@H]2C(C)O (some centres unmarked) | 94 | 94 | –
